In PubChem BioAssay AID1963835 (Molecular Pharmacology Branch, DTP, NCI, 2024):

Tested on: 699152-130-R-J1-PDC complex spheroid viability
Assay: Anticancer human tumor 699152-130-R-J1-PDC patient-derived pancreatic carcinoma cell line growth inhibition [POLQ]
Conditions: for IC50: curve of first compound; for viability, T/C: stronger effect = lower value
In short: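 Growth inhibition in 3D: complex spheroids (tumor PDC, HUVEC, MSC) treated with POLQ inhibitor combinations; where Cmax unknown, highest tested concentration 10 microM, except SN-38 at 1 microM.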

[1] = second compound 0.0316 µM, first compound 0.0316 µM
[2] = second compound 0.0316 µM, first compound 0.1 µM
[3] = second compound 0.0316 µM, first compound 0.316 µM
[4] = second compound 0.0316 µM, first compound 1 µM
[5] = second compound 0.0316 µM, first compound 3.16 µM
[6] = second compound 0.0316 µM, first compound 10 µM
[7] = second compound 0.1 µM, first compound 0.0316 µM
[8] = second compound 0.1 µM, first compound 0.1 µM
[9] = second compound 0.1 µM, first compound 0.316 µM
[10] = second compound 0.1 µM, first compound 1 µM
[11] = second compound 0.1 µM, first compound 3.16 µM
[12] = second compound 0.1 µM, first compound 10 µM
[13] = second compound 0.316 µM, first compound 0.0316 µM
[14] = second compound 0.316 µM, first compound 0.1 µM
[15] = second compound 0.316 µM, first compound 0.316 µM
[16] = second compound 0.316 µM, first compound 1 µM
[17] = second compound 0.316 µM, first compound 3.16 µM
[18] = second compound 0.316 µM, first compound 10 µM
[19] = second compound 1 µM, first compound 0.0316 µM
[20] = second compound 1 µM, first compound 0.1 µM
[21] = second compound 1 µM, first compound 0.316 µM
[22] = second compound 1 µM, first compound 1 µM
[23] = second compound 1 µM, first compound 3.16 µM
[24] = second compound 1 µM, first compound 10 µM
[25] = second compound 3.16 µM, first compound 0.0316 µM
[26] = second compound 3.16 µM, first compound 0.1 µM
[27] = second compound 3.16 µM, first compound 0.316 µM
[28] = second compound 3.16 µM, first compound 1 µM
[29] = second compound 3.16 µM, first compound 3.16 µM
[30] = second compound 3.16 µM, first compound 10 µM
[31] = second compound 10 µM, first compound 0.0316 µM
[32] = second compound 10 µM, first compound 0.1 µM
[33] = second compound 10 µM, first compound 0.316 µM
[34] = second compound 10 µM, first compound 1 µM
[35] = second compound 10 µM, first compound 3.16 µM
[36] = second compound 10 µM, first compound 10 µM
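Further: spheroids exposed to agents for 7 days before viability reading.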
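Wherever viability, T/C is given: percent of DMSO vehicle control viability so 100% = vehicle and 0% = no viable signal.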

SMILES: O=c1[nH]cc(F)c(=O)[nH]1 + Cc1cccc(N(C)C(=O)C2C(O)CCN2c2nc(C)cc(C(F)(F)F)c2C#N)c1
- IC50 (second compound 0.0316 µM): > 10 µM
- IC50 (second compound 0.1 µM): > 10 µM
- IC50 (second compound 0.316 µM): > 10 µM
- IC50 (second compound 1 µM): > 10 µM
- IC50 (second compound 3.16 µM): > 10 µM
- IC50 (second compound 10 µM): > 10 µM
- viability, T/C [1]: 105%
- viability, T/C [2]: 109%
- viability, T/C [3]: 107%
- viability, T/C [4]: 113%
- viability, T/C [5]: 102%
- viability, T/C [6]: 74.1%
- viability, T/C [7]: 110%
- viability, T/C [8]: 113%
- viability, T/C [9]: 99.2%
- viability, T/C [10]: 107%
- viability, T/C [11]: 100%
- viability, T/C [12]: 82.6%
- viability, T/C [13]: 120%
- viability, T/C [14]: 122%
- viability, T/C [15]: 106%
- viability, T/C [16]: 107%
- viability, T/C [17]: 120%
- viability, T/C [18]: 79.9%
- viability, T/C [19]: 108%
- viability, T/C [20]: 104%
- viability, T/C [21]: 104%
- viability, T/C [22]: 111%
- viability, T/C [23]: 92.1%
- viability, T/C [24]: 74.7%
- viability, T/C [25]: 113%
- viability, T/C [26]: 116%
- viability, T/C [27]: 108%
- viability, T/C [28]: 104%
- viability, T/C [29]: 117%
- viability, T/C [30]: 87.3%
- viability, T/C [31]: 103%
- viability, T/C [32]: 102%
- viability, T/C [33]: 104%
- viability, T/C [34]: 92.8%
- viability, T/C [35]: 91.3%
- viability, T/C [36]: 84.6%

SMILES: COc1cccc2c1C(=O)c1c(O)c3c(c(O)c1C2=O)CC(O)(C(=O)CO)CC3OC1CC(N)C(O)C(C)O1 (stereo unspecified) + Nc1ccc(C#CCN(C(=O)Cc2ncc(C(F)(F)F)cc2C(F)(F)F)c2ccc(F)cc2)nn1
- IC50 (second compound 0.0316 µM): 0.353 µM
- IC50 (second compound 0.1 µM): 0.409 µM
- IC50 (second compound 0.316 µM): 0.377 µM
- IC50 (second compound 1 µM): 0.205 µM
- IC50 (second compound 3.16 µM): 0.263 µM
- IC50 (second compound 10 µM): 0.419 µM
- viability, T/C [1]: 78%
- viability, T/C [2]: 61.9%
- viability, T/C [3]: 51.9%
- viability, T/C [4]: 36.6%
- viability, T/C [5]: 2.41%
- viability, T/C [6]: 9.62%
- viability, T/C [7]: 76.7%
- viability, T/C [8]: 69.8%
- viability, T/C [9]: 51.9%
- viability, T/C [10]: 37.5%
- viability, T/C [11]: 3%
- viability, T/C [12]: 7.86%
- viability, T/C [13]: 78.9%
- viability, T/C [14]: 73.3%
- viability, T/C [15]: 49.7%
- viability, T/C [16]: 35.7%
- viability, T/C [17]: 5.24%
- viability, T/C [18]: 9.53%
- viability, T/C [19]: 85%
- viability, T/C [20]: 57.9%
- viability, T/C [21]: 46.7%
- viability, T/C [22]: 28.6%
- viability, T/C [23]: 1.69%
- viability, T/C [24]: 12.1%
- viability, T/C [25]: 85.2%
- viability, T/C [26]: 61.8%
- viability, T/C [27]: 51.2%
- viability, T/C [28]: 28.4%
- viability, T/C [29]: 2.48%
- viability, T/C [30]: 10.9%
- viability, T/C [31]: 80.6%
- viability, T/C [32]: 72%
- viability, T/C [33]: 56.1%
- viability, T/C [34]: 31.9%
- viability, T/C [35]: 3.65%
- viability, T/C [36]: 10.6%

SMILES: CCc1cc2c(N3CCc4c(cc(Cn5ccnc5)cc4-c4cn(C)nc4C(F)(F)F)C3=O)cc(C)nc2c(OC)n1 + Cc1cccc(N(C)C(=O)C2C(O)CCN2c2nc(C)cc(C(F)(F)F)c2C#N)c1
- IC50 (second compound 0.0316 µM): > 10 µM
- IC50 (second compound 0.1 µM): > 10 µM
- IC50 (second compound 0.316 µM): > 10 µM
- IC50 (second compound 1 µM): > 10 µM
- IC50 (second compound 3.16 µM): > 10 µM
- IC50 (second compound 10 µM): > 10 µM
- viability, T/C [1]: 88%
- viability, T/C [2]: 96.5%
- viability, T/C [3]: 89.3%
- viability, T/C [4]: 94.1%
- viability, T/C [5]: 92.9%
- viability, T/C [6]: 102%
- viability, T/C [7]: 90.8%
- viability, T/C [8]: 93.2%
- viability, T/C [9]: 95.4%
- viability, T/C [10]: 97.1%
- viability, T/C [11]: 91.1%
- viability, T/C [12]: 98%
- viability, T/C [13]: 94.3%
- viability, T/C [14]: 94.5%
- viability, T/C [15]: 96.9%
- viability, T/C [16]: 103%
- viability, T/C [17]: 93.8%
- viability, T/C [18]: 99.8%
- viability, T/C [19]: 97.1%
- viability, T/C [20]: 89.5%
- viability, T/C [21]: 98.8%
- viability, T/C [22]: 94%
- viability, T/C [23]: 91.9%
- viability, T/C [24]: 88.7%
- viability, T/C [25]: 104%
- viability, T/C [26]: 100%
- viability, T/C [27]: 92.2%
- viability, T/C [28]: 90.5%
- viability, T/C [29]: 101%
- viability, T/C [30]: 96.9%
- viability, T/C [31]: 84.8%
- viability, T/C [32]: 93.5%
- viability, T/C [33]: 94.5%
- viability, T/C [34]: 96.1%
- viability, T/C [35]: 86%
- viability, T/C [36]: 89.8%
